Measurements taken from US4966894A, “Polysulfated heparins for treating diseases caused by retroviruses” (BASF Aktiengesellschaft, priority 1987, dated 1990).

Experiments:
[1] = system: reverse transcriptase from HIV I; conditions: literature and own experiments, cf. Table 1; cited from earlier work
[2] = background statement; may induce hemorrhages; cited from earlier work
[3] = system: HIV; conditions: Antiviral Res. 7 [1987], 361; cited from earlier work
[4] = system: reverse transcriptase of Schmidt-Ruppin D (SR-D) virus; conditions: German Laid-Open Application DOS No. 3,601,136; cited from earlier work
[5] = system: reverse transcriptase from HIV I; assay: Enzyme test with reverse transcriptase from HIV I; format: biochemical; conditions: 50 μg/ml substance; 120 minutes at 37° C.; poly(rA)/oligo(dT)15 matrix, 3H-dTTP
Method: I. Enzyme test with reverse transcriptase from HIV I
In the model system described below, the activity of the reverse transcriptase is determined in the presence of an inhibitor, essentially according to Hansen et al. (J. Biol. Chem. 262 [1987], 12393).
The enzyme test has a total volume of 50 μl and contains the following components: 50 mM tris-HCl pH 7.8, 80 mM KCl, 8 mM MgCl2 and 1 mM DTT. This system contains the synthetic polymer poly(rA)/oligo (dT)15 (Boehringer Mannheim) as a matrix, in a concentration of 1 mg/ml. This matrix consists of a synthetic RNA having a length of 100-200 nucleotides,to which short DNA primers having a length of 15 nucleotides are bonded. The DNA primers serve as starting points for the reverse transcriptase. […]
The DNA bound to the exchanger is dried under an infrared lamp, after which the activity is determined by liquid scintillation measurement. The unspecific background is the radioactivity bound to the DEAE filter in the absence of reverse transcriptase in the method described above. […]
The activity of the reverse transcriptase in the presence of a potential inhibitor is expressed as a percentage of the activity in the absence of an inhibitor; or the inhibitory action of a substance (%) is defined as 100% minus the activity in percent.

Substance | inhibitory action on reverse transcriptase of HIV I (in words) [1] | anticoagulant properties [2] | inhibition of HIV replication in vitro [3] | inhibition of reverse transcriptase of SR-D virus [4] | Inhibition % [5] [%]
heparin [Commercial heparin] | could not, however, be confirmed | has anticoagulant properties | selective inhibitor of HIV replication in vitro | inhibits reverse transcriptase | –
heparin [Unfractionated heparin] | – | – | – | – | 0
